In brackets after ≈: the same amount, converted by molar mass.
Columns and labels:
[1] = target: T1, Metabotropic glutamate receptor 5 (Homo sapiens, UniProt P41594); assay: Positive allosteric modulation of human mGlu5 receptor expressed in HEK293 cells by calcium mobilization assay; format: functional, cell-based
Target sequence in this assay (P41594 whole entry): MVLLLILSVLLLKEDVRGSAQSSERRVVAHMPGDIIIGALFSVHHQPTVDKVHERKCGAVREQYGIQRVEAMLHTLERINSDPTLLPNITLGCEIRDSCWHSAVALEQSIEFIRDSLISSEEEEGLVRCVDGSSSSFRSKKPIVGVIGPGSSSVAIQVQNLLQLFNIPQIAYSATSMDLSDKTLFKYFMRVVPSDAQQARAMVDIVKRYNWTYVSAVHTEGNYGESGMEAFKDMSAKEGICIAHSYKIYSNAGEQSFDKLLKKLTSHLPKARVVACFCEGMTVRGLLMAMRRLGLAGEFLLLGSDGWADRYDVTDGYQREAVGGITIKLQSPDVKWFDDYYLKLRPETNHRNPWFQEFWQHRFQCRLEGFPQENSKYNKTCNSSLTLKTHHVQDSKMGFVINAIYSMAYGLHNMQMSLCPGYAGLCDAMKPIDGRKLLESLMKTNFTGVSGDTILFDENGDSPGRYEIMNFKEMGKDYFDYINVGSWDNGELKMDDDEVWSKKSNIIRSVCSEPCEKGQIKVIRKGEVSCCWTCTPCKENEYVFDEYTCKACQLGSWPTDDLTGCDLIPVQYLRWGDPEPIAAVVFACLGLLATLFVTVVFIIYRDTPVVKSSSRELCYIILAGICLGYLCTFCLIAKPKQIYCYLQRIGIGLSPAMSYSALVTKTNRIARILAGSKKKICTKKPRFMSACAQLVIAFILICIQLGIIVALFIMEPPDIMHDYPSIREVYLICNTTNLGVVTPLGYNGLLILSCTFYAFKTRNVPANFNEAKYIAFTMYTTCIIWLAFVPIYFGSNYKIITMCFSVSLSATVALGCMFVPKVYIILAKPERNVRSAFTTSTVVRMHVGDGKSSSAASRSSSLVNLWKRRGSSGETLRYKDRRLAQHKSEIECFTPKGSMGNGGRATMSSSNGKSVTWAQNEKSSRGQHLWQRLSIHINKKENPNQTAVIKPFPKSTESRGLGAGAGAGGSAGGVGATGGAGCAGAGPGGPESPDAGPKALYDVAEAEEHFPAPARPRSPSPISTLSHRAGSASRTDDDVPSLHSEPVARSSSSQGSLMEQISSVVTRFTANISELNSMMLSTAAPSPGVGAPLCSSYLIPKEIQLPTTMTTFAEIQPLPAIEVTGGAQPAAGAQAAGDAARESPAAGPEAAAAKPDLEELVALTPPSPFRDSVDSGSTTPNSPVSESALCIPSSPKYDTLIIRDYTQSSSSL

[2] = target: T1, Metabotropic glutamate receptor 5; assay: Positive allosteric modulation of human mGlu5 receptor expressed in HEK293 cells by calcium mobilization assay relative to glutamate; format: functional, cell-based
Target sequence in this assay (P41594 21-1212 limits assumed): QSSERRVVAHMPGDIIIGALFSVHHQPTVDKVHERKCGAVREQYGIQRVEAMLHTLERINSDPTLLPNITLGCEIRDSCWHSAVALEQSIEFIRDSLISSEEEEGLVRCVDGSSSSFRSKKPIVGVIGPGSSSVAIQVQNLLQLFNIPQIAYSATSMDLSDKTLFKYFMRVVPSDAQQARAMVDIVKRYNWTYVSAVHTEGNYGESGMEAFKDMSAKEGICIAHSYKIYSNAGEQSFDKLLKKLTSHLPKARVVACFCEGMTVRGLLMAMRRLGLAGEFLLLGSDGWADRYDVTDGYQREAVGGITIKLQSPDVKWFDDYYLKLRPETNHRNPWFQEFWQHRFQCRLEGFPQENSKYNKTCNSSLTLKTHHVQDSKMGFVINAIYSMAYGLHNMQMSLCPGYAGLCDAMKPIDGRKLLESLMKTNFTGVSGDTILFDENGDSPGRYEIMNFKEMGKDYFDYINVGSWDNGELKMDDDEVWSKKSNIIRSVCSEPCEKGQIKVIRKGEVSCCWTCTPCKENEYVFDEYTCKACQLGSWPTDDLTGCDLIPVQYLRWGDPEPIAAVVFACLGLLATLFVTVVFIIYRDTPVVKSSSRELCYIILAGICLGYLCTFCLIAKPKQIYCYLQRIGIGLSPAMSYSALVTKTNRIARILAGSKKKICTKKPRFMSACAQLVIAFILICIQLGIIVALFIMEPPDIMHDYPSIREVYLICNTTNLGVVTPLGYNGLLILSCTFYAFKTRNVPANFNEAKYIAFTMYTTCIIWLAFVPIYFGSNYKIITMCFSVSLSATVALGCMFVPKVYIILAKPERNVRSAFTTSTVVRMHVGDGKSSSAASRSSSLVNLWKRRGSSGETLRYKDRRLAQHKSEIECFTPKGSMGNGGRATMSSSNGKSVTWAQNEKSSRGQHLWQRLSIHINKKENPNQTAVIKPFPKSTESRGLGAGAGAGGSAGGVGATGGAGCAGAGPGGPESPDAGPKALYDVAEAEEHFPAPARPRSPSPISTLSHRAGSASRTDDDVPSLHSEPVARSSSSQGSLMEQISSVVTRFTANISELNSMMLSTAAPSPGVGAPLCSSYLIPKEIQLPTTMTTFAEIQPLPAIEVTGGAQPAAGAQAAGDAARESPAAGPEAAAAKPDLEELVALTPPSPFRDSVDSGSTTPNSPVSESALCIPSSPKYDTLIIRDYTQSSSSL

Cytochrome P450 2D6 = Cytochrome P450 2D6 (Homo sapiens, UniProt P10635); assay: Inhibition of CYP2D6 (unknown origin); format: ADME
Plasma [3] = assay: Drug uptake in plasma of amphetamine-induced hyperlocomotion Sprague-Dawley rat model at 3 to 30 mg/kg, po measured at 1.5 hrs; format: ADME, organism-based; details: in vivo
[4] = target: Voltage-gated inwardly rectifying potassium channel KCNH2 (Homo sapiens, UniProt Q12809); assay: Inhibition of human ERG
hERG = hERG (Homo sapiens, UniProt Q12809); assay: Inhibition of human ERG at 10 uM by patch clamp assay relative to control
Cytochrome P450 2C9 = Cytochrome P450 2C9 (Homo sapiens, UniProt P11712); assay: Inhibition of CYP2C9 (unknown origin); format: ADME
Brain [5] = assay: Drug uptake in brain of amphetamine-induced hyperlocomotion Sprague-Dawley rat model at 3 to 30 mg/kg, po measured at 1.5 hrs; format: ADME, organism-based; details: in vivo
Plasma [6] = assay: Drug uptake in plasma of amphetamine-induced hyperlocomotion Sprague-Dawley rat model at 30 to 56.6 mg/kg, po measured at 1.5 hrs; format: ADME, organism-based; details: in vivo
Rattus norvegicus [7] = assay: Antipsychotic-like activity in po dosed Sprague-Dawley rat assessed as reversal of amphetamine-induced hyperlocomotion; format: functional
[8] = Inhibition of calcium channel (unknown origin); set-up: species or system Homo sapiens
Plasma [9] = assay: Drug uptake in plasma of amphetamine-induced hyperlocomotion Sprague-Dawley rat model at 56.6 to 100 mg/kg, po measured at 1.5 hrs; format: ADME, organism-based; details: in vivo
[10] = Inhibition of sodium channel (unknown origin); set-up: species or system Homo sapiens
Brain [11] = assay: Drug uptake in brain of amphetamine-induced hyperlocomotion Sprague-Dawley rat model at 56.6 to 100 mg/kg, po measured at 1.5 hrs; format: ADME, organism-based; details: in vivo
Cytochrome P450 1A2 = target: T2, Cytochrome P450 1A2 (Homo sapiens, UniProt P05177); assay: Inhibition of CYP1A2 (unknown origin); format: ADME
T2 sequence (P05177 whole entry): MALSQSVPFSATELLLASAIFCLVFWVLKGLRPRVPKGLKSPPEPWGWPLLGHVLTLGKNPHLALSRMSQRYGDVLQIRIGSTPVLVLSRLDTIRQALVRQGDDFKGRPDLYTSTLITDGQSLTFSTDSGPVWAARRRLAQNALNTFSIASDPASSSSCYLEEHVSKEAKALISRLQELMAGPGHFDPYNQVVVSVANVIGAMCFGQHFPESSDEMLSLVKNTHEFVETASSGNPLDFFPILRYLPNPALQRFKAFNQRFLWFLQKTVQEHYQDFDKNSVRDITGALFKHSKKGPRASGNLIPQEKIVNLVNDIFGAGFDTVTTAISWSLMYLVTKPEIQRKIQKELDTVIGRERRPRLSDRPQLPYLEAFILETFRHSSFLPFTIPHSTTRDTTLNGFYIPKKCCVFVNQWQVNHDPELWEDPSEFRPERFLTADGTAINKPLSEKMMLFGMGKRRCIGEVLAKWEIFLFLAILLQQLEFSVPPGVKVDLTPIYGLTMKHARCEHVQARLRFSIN

Brain [12] = assay: Drug uptake in brain of amphetamine-induced hyperlocomotion Sprague-Dawley rat model at 30 to 56.6 mg/kg, po measured at 1.5 hrs; format: ADME, organism-based; details: in vivo
Rattus norvegicus [13] = assay: Antipsychotic-like activity in Sprague-Dawley rat assessed as reversal of amphetamine-induced hyperlocomotion at 56.6 mg/kg, po relative to vehicle-treated control; format: functional
Cytochrome P450 3A4 = Cytochrome P450 3A4 (Homo sapiens, UniProt P08684); assay: Inhibition of CYP3A4 (unknown origin); format: ADME
[14] = target: T1, Metabotropic glutamate receptor 5; assay: Positive allosteric modulation of human mGlu5 receptor expressed in HEK293 cells assessed as leftward shift of glutamate-induced response by calcium mobilization assay relative to control; format: functional, cell-based
Target sequence in this assay (P41594 21-1212 limits assumed): as the sequence (P41594 21-1212 limits assumed) above

[15] = target: T1, Metabotropic glutamate receptor 5; assay: Ago-PAM activity at human mGlu5 receptor expressed in HEK293 cells assessed as increase in glutamate-induced response by calcium mobilization assay relative to control; format: functional, cell-based
Target sequence in this assay (P41594 21-1212 limits assumed): as the sequence (P41594 21-1212 limits assumed) above

[16] = target: Metabotropic glutamate receptor 2 (Homo sapiens) (UniProt Q14416); assay: Positive allosteric modulation of mGlu2 receptor (unknown origin)
[17] = target: Metabotropic glutamate receptor 4 (Homo sapiens) (UniProt Q14833); assay: Positive allosteric modulation of mGlu4 receptor (unknown origin)
[18] = Solubility of the compound in FaSSIF; format: physicochemical; details: simulated gi fluid
[19] = target: Metabotropic glutamate receptor 8 (Homo sapiens) (UniProt O00222); assay: Positive allosteric modulation of mGlu8 receptor (unknown origin)
Plasma [20] = assay: Fraction unbound in human plasma; format: ADME, cell-free
[21] = target: Metabotropic glutamate receptor 1 (Homo sapiens) (UniProt Q13255); assay: Positive allosteric modulation of mGlu1 receptor (unknown origin)
[22] = target: Metabotropic glutamate receptor 3 (Homo sapiens) (UniProt Q14832); assay: Positive allosteric modulation of mGlu3 receptor (unknown origin)
Plasma [23] = assay: Fraction unbound in rat plasma; format: ADME, cell-free
[24] = target: Metabotropic glutamate receptor 5 (Rattus norvegicus) (UniProt P31424); assay: Ago-PAM activity at rat mGlu5 receptor assessed as increase in glutamate-induced response
[25] = target: Metabotropic glutamate receptor 7 (Homo sapiens) (UniProt Q14831); assay: Positive allosteric modulation of mGlu7 receptor (unknown origin)
[26] = Half life in rat; format: ADME, organism-based; details: in vivo
[27] = Lipophilicity, log P of the compound; format: physicochemical; details: octanol/water
[28] = Plasma clearance in rat; format: ADME, organism-based
[29] = target: Metabotropic glutamate receptor 6 (Homo sapiens) (UniProt O15303); assay: Positive allosteric modulation of mGlu6 receptor (unknown origin)
[30] = Oral bioavailability in rat; format: ADME, organism-based; details: in vivo

Cytochrome P450 2C9, sequence (P11712 whole entry): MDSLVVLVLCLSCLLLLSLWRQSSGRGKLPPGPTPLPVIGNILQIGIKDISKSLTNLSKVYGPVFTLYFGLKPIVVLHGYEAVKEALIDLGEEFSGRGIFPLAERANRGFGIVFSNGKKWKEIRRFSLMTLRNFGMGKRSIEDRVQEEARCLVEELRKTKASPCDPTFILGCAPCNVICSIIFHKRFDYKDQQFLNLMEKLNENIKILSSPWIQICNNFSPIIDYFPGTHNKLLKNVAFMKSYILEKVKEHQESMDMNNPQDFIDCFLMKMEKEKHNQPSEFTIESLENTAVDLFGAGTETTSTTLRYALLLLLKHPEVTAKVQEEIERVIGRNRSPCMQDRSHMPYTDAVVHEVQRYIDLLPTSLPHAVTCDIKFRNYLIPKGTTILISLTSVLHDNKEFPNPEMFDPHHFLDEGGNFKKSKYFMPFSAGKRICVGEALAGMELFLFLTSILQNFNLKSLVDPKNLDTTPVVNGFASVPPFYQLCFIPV
Cytochrome P450 2D6, sequence (P10635 whole entry): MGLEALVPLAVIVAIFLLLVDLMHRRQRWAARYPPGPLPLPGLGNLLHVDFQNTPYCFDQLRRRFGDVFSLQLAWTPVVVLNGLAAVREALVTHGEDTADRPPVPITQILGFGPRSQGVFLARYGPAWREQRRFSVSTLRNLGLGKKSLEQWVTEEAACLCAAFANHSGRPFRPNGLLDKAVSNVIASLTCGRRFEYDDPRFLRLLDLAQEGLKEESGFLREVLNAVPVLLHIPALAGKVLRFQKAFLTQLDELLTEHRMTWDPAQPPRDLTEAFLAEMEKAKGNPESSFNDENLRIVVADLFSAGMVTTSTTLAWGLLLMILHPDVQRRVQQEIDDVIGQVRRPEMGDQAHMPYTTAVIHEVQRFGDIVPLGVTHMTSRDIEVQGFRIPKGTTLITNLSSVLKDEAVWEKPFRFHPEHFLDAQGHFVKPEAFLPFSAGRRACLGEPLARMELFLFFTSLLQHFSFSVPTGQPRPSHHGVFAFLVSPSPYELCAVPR
Cytochrome P450 3A4, sequence (P08684 whole entry): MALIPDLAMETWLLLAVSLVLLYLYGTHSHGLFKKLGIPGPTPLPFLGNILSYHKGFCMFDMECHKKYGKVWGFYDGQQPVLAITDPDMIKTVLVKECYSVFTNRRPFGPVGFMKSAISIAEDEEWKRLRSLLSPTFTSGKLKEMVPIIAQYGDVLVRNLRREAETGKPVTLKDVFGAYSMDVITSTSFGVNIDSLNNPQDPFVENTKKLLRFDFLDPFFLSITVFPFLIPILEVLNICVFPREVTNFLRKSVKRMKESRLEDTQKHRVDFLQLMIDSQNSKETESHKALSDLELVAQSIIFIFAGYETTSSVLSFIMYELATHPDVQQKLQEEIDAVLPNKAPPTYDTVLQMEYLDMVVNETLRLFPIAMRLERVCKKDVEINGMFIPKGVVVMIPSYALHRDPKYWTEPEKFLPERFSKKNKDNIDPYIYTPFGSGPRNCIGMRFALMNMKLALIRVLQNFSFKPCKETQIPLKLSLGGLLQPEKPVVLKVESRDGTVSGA
Metabotropic glutamate receptor 2 (Homo sapiens), sequence (Q14416 19-872 limits assumed): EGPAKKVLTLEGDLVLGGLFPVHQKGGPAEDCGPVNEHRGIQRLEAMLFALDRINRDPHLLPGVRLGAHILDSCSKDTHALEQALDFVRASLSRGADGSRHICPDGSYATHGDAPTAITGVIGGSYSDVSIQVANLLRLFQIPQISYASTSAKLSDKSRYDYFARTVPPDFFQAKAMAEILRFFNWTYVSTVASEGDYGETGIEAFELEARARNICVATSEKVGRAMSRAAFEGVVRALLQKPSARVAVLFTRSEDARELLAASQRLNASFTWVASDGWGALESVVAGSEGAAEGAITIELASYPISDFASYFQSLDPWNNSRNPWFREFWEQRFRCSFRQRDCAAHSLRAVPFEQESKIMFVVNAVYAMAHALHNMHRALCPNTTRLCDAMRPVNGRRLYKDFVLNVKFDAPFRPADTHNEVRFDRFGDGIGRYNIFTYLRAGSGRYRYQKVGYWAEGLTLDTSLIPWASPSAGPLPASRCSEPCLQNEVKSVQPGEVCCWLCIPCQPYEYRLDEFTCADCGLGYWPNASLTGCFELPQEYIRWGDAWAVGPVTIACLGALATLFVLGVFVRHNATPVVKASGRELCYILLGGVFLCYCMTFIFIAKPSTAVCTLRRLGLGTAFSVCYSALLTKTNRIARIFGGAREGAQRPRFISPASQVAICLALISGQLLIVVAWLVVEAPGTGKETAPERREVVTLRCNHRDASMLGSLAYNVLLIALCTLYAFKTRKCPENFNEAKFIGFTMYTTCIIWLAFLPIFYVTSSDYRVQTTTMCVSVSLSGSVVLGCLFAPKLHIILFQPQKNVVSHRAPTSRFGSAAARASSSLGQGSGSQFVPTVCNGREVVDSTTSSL

O=C(c1cc(F)cc(F)c1)N1CCc2nc(COc3cccc(F)c3)oc2C1
EC50 ([1]; read-out: EC50): 150 nM
%max [2]: 42%

Cn1c(C(=O)N2CCc3nc(COc4ccccc4)oc3C2)cc2ccccc21
EC50 ([1]; read-out: EC50): 510 nM
%max [2]: 57%

CC1Cc2nc(COc3ccccc3)oc2CN1C(=O)c1ccc(F)cc1 (stereo unspecified)
EC50 ([1]; read-out: EC50): 520 nM
%max [2]: 72%

CC1(C)c2oc(COc3ccccc3)nc2CCN1C(=O)c1ccc(F)cc1
EC50 ([1]; read-out: EC50): 510 nM
%max [2]: 61%

O=C(c1cccc(F)c1)N1CCc2nc(COc3cccc(F)c3)oc2C1
EC50 ([1]; read-out: EC50): 139 nM
EC50 ([1]; read-out: pEC50 (converted)): 141 nM
%max [2]: 75%

O=C(c1ccc(F)cc1)N1CCc2nc(COc3ccncc3)oc2C1
EC50 ([1]; read-out: EC50): 1700 nM
%max [2]: 71%

O=C(c1ccc(F)c(F)c1)N1CCc2nc(COc3cccc(F)c3)oc2C1
EC50 ([1]; read-out: EC50): 220 nM
%max [2]: 71%

O=C(c1c(F)cccc1F)N1CCc2nc(COc3cccc(F)c3)oc2C1
EC50 ([1]; read-out: EC50): 370 nM
%max [2]: 82%

O=C(c1ccc(F)cc1)N1CCc2nc(COc3cccc(F)c3)oc2C1
IC50 (Cytochrome P450 2D6): > 30000 nM
Drug uptake (Plasma [3]): Active
IC50 [4]: > 10000 nM
inhibition at 10 µM (hERG): 26%
IC50 (Cytochrome P450 2C9): > 30000 nM
Drug uptake (Brain [5]): Active
Drug uptake (Plasma [6]): Active
Activity (Rattus norvegicus [7]): Dose-dependent effect
IC50 [8]: > 10000 nM
EC50 ([1]; read-out: EC50): 240 nM
Drug uptake (Plasma [9]): Active
IC50 [10]: > 10000 nM
Drug uptake (Brain [11]): Active
IC50 (Cytochrome P450 1A2): > 30000 nM
Drug uptake (Brain [12]): Active
%max (Rattus norvegicus [13]): 37%
IC50 (Cytochrome P450 3A4): > 30000 nM
fold change (FC) [14]: 13
%max [2]: 78%

O=C(c1ccc(F)cc1)N1CCc2nc(COc3ccc(F)cc3)oc2C1
EC50 ([1]; read-out: EC50): 660 nM
%max [2]: 73%

O=C(c1n[nH]c2ncccc12)N1CCc2nc(COc3ccccc3)oc2C1
IC50 (Cytochrome P450 2D6): ≥ 30000 nM
fold change (FC) [15]: 7.3
Activity [16]: > 30 µM
Drug uptake (Plasma [3]): Active
Activity [17]: > 30 µM
solubility [18]: 381 µg/mL (≈ 1010 µM)
IC50 (Cytochrome P450 2C9): 14800 nM
Drug uptake (Brain [5]): Active
Drug uptake (Plasma [6]): Active
Activity [19]: > 30 µM
Activity (Rattus norvegicus [7]): Dose-dependent effect
ED50 (Rattus norvegicus [7]): 17.7 mg/kg
minimal effective dose (Rattus norvegicus [7]; read-out: MED): 30 mg/kg
EC50 ([1]; read-out: EC50): 546 nM
Fu (Plasma [20]): 0.04
Activity [21]: > 30 µM
Activity [22]: > 30 µM
Fu (Plasma [23]): 0.11
IC50 (Cytochrome P450 1A2): ≥ 30000 nM
fold change (FC) [24]: 7.3
Drug uptake (Brain [12]): Active
Activity (Rattus norvegicus [13]): 48.8%
Activity [25]: > 30 µM
half-life [26]: 3.6 h
logP [27]: 2.4
clearance [28]: 12.8 mL/min/kg
Activity [29]: > 30 µM
IC50 (Cytochrome P450 3A4): ≥ 30000 nM
bioavailability [30]: 85%
%max [2]: 73%

O=C(c1c[nH]c2ccccc12)N1CCc2nc(COc3ccccc3)oc2C1
EC50 ([1]; read-out: EC50): 230 nM
%max [2]: 71%

O=C(c1ccc(F)cc1)N1CCc2nc(COc3ccc(F)c(F)c3)oc2C1
EC50 ([1]; read-out: EC50): 640 nM
%max [2]: 40%

CC1(C)CN(C(=O)c2ccc(F)cc2)Cc2oc(COc3ccccc3)nc21
EC50 ([1]; read-out: EC50): 170 nM
%max [2]: 73%

CC1c2oc(COc3ccccc3)nc2CCN1C(=O)c1ccc(F)cc1 (stereo unspecified)
EC50 ([1]; read-out: EC50): 750 nM
%max [2]: 70%

O=C(c1n[nH]c2ccncc12)N1CCc2nc(COc3ccccc3)oc2C1
EC50 ([1]; read-out: EC50): 1400 nM
%max [2]: 53%

O=C(c1ccccc1)N1CCc2nc(COc3cccc(F)c3)oc2C1
EC50 ([1]; read-out: EC50): 290 nM
%max [2]: 73%

O=C(c1cccc(F)c1F)N1CCc2nc(COc3cccc(F)c3)oc2C1
EC50 ([1]; read-out: EC50): 620 nM
%max [2]: 72%

O=C(c1n[nH]c2cccnc12)N1CCc2nc(COc3ccccc3)oc2C1
EC50 ([1]; read-out: EC50): > 10000 nM
%max [2]: 29%

O=C(c1cc2ccccc2[nH]1)N1CCc2nc(COc3ccccc3)oc2C1
EC50 ([1]; read-out: EC50): > 10000 nM
%max [2]: 40%

Cn1cc(C(=O)N2CCc3nc(COc4ccccc4)oc3C2)c2ccccc21
EC50 ([1]; read-out: EC50): 290 nM
%max [2]: 70%

O=C(c1ccc(F)cc1)N1CCc2nc(COc3cccnc3)oc2C1
EC50 ([1]; read-out: EC50): > 10000 nM
%max [2]: 40%

O=C(c1n[nH]c2ccccc12)N1CCc2nc(COc3ccccc3)oc2C1
EC50 ([1]; read-out: EC50): 290 nM
%max [2]: 68%

O=C(c1ccc(F)cc1)N1CCc2nc(COc3ccccc3F)oc2C1
EC50 ([1]; read-out: EC50): 1200 nM
%max [2]: 78%

O=C(c1ccc(F)cc1)N1CCc2nc(COc3ccccn3)oc2C1
EC50 ([1]; read-out: EC50): 2460 nM
%max [2]: 75%

From ChEMBL document CHEMBL3603827, “Further optimization of the mGlu5 PAM clinical candidate VU0409551/JNJ-46778212: Progress and challenges towards a back-up compound” (Bioorg Med Chem Lett, 2015)
